In patent US10183939B2, “Fused bicyclic (hetero)aromatic compounds useful for the treatment of cancers” (Redx Pharma PLC, priority 2014, dated 2019):
“Also recorded” adds a separate entry of the source. Read-outs that look alike come from different tables or passages of the source.

What was measured:
C-RAF Y340D/Y341D kinase = C-RAF Y340D/Y341D kinase (Homo sapiens (Human), UniProt P04049, Y340D/Y341D); experiment: LanthaScreen Eu kinase binding assay (C-RAF); settings: tracer 178 competition, 5 hours
Chain of C-RAF Y340D/Y341D kinase (P04049 306-648 Y340D/Y341D): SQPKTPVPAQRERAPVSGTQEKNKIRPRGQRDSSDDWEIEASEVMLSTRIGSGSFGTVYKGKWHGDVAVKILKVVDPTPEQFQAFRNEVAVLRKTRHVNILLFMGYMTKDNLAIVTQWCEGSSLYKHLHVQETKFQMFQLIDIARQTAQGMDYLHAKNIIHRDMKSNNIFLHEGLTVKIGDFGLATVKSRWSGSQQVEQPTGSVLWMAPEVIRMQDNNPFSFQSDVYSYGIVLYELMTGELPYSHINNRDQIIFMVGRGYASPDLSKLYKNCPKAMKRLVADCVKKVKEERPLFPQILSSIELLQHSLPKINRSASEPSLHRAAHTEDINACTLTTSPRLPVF
Procedure: LanthaScreen™ Eu kinase binding assay
To determine whether compounds bind to RAF kinases, they are tested in a competition binding assay. The Invitrogen LanthaScreen™ Eu binding assay involves the binding of an Alexa-Fluor® 647-labelled, ATP-competitive kinase tracer to the kinase of interest. A Europium-labelled anti-tag antibody also binds to the kinase of interest. Simultaneous binding of the tracer and the antibody brings them into close proximity and upon excitation at 340 nm, triggers fluorescence resonance energy transfer (FRET) between the Europium donor fluorophore on the antibody and the Alexa Fluor® 647 acceptor on the tracer. The dual emission signal produced can be measured at 665 and 615 nm.
(§1) Compounds at a concentration of 3 mM are serially diluted (e.g. 10 μl 90 μl of 100% dimethyl sulfoxide (DMSO)) seven times in 96-well plates for a total of 8 dilution points. Each DMSO dilution is further diluted 1:100 in kinase buffer (e.g. 5 μl into 495 μl kinase buffer) containing 50 mM HEPES pH 7.5, 10 mM MgCl2, 1 mM EGTA, 0.01% Brij-35.
(§2) The plates are incubated for 5 hours at room temperature and read on an EnVision plate reader (Perkin Elmer).
All data are analysed using the GraphPad Prism software package. Inhibition of tracer binding to the kinase of interest is assessed by determination of IC50 value, which is defined as the concentration of compound which decreased the level of FRET signal measured at 665 nm by 50%.

B-RAF^V600E kinase = B-RAF^V600E kinase (Homo sapiens (Human), UniProt P15056, V600E); experiment: LanthaScreen Eu kinase binding assay (B-RAF V600E); settings: tracer 178 competition, 5 hours
Chain of B-RAF^V600E kinase (P15056 whole entry V600E): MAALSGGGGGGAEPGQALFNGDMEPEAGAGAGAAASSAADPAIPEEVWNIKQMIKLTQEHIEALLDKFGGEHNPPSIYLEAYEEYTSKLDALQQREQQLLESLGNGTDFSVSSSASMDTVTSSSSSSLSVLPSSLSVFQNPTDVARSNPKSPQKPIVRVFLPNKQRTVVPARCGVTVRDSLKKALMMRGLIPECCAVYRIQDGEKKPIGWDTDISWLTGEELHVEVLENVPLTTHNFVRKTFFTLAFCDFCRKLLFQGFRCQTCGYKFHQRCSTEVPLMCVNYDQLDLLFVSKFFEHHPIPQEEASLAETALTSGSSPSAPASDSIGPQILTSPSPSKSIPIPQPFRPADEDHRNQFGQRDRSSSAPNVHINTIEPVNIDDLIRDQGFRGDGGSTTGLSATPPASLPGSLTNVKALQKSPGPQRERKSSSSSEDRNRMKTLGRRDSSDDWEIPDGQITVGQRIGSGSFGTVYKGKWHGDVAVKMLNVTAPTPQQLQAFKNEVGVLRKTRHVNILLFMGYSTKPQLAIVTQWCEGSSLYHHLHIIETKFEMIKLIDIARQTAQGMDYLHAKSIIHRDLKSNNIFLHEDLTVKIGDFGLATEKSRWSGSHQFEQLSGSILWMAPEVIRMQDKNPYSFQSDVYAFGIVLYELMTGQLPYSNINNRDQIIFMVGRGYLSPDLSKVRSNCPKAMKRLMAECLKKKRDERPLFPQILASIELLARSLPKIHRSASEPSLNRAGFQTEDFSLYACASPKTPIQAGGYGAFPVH
Procedure: LanthaScreen™ Eu kinase binding assay
To determine whether compounds bind to RAF kinases, they are tested in a competition binding assay. […] A Europium-labelled anti-tag antibody also binds to the kinase of interest.
as §1, §2
(§3) All data are analysed using the GraphPad Prism software package.

[1] = test system: ERK phosphorylation in A375 cells (B-RAF^V600E); experiment: A375 AlphaScreen SureFire pERK1/2 cellular assay; assay type: cell-based; settings: Homo sapiens, A-375, 0.5 h, 30 minutes treatment
Procedure: On day 2, compounds at a concentration of 6 mM are serially diluted 10 μl into 90 μl of 100% dimethyl sulfoxide (DMSO) six times in 96-well plates for a total of 7 dilution points. Each dilution and a DMSO control are further diluted 1:200 (e.g. 5 μl into 995 μl serum-free growth media). The media is removed and 50 μl compound dilution or control in serum-free media is added to triplicate wells containing cells, providing 30 μM compound at the maximum concentration. The cells are treated for 30 minutes at room temperature. The treatment is then removed and the cells are incubated with lysis buffer containing phosphatase inhibitors for 10 minutes at room temperature. […] The biotinylated antibody binds to the streptavidin-coated donor beads and the phopsho-ERK1/2 antibody binds to the acceptor beads. Plates are read on an EnVision reader (Perkin Elmer) and excitation of the beads at 680 nm with a laser induces the release of singlet oxygen molecules from the donor beads that trigger energy transfer to the acceptor beads in close proximity, producing a signal that can be measured at 570 nm. Both antibodies bind to phosphorylated ERK proteins, bringing the donor and acceptor beads into close proximity.
as §3

[2] = test system: C-RAF-mediated ERK activation in B-RAF^WT IPC-298 cells (NRAS^Q61L); experiment: IPC-298 AlphaScreen SureFire pERK1/2 cellular assay; assay type: cell-based, human; settings: 1 hour treatment, relative to reference compound Dabrafenib
Procedure: On day 2, compounds at a concentration of 6 mM are serially diluted 5 μl into 45 μl of 100% dimethyl sulfoxide (DMSO) six times in 96-well plates for a total of 7 dilution points. […] The cells are treated for 1 hour at 37° C. in 5% CO2. The treatment is then removed and the cells are incubated with lysis buffer containing phosphatase inhibitors for 10 minutes at room temperature with gentle shaking. […] The biotinylated antibody binds to the streptavidin-coated donor beads and the phopsho-ERK1/2 antibody binds to the acceptor beads. Plates are read on an EnVision reader (Perkin Elmer) and excitation of the beads at 680 nm with a laser induces the release of singlet oxygen molecules from the donor beads that triggers energy transfer to the acceptor beads in close proximity, producing a signal that can be measured at 570 nm. Both antibodies bind to phosphorylated ERK proteins, bringing the donor and acceptor beads into close proximity.
All data are analysed using the GraphPad Prism software package. Activation of ERK phosphorylation is expressed as a percentage of activation relative to the reference compound, Dabrafenib.

[3] = test system: ERK phosphorylation in WiDr cells (B-RAF^V600E); experiment: WiDr AlphaScreen SureFire pERK1/2 cellular assay; assay type: cell-based; settings: Homo sapiens
Procedure: The human WiDr colorectal cell line endogenously expresses the B-RAF^V600E mutation, which leads to constitutive activation of the MAP kinase pathway and phosphorylation of ERK in the absence of ligands.
On day 2, compounds at a concentration of 6 mM are serially diluted 10 μl into 90 μl of 100% dimethyl sulfoxide (DMSO) six times in 96-well plates for a total of 7 dilution points. Each dilution and a DMSO control are further diluted 1:200 (e.g. 5 μl into 995 μl minimum essential medium+0.1% fetal bovine serum). The media is removed and 100 μl compound dilution or control in minimum essential medium+0.1% fetal bovine serum is added to triplicate wells containing cells, providing 30 μM compound at the maximum concentration. The cells are treated for 1 hour or 24 hours at 37° C. The treatment is then removed and the cells are incubated with lysis buffer containing phosphatase inhibitors for 10 minutes at room temperature. […] The biotinylated antibody binds to the streptavidin-coated donor beads and the phopsho-ERK1/2 antibody binds to the acceptor beads. Plates are read on an EnVision reader (Perkin Elmer) and excitation of the beads at 680 nm with a laser induces the release of singlet oxygen molecules from the donor beads that triggers energy transfer to the acceptor beads in close proximity, producing a signal that can be measured at 570 nm. Both antibodies bind to phosphorylated ERK proteins, bringing the donor and acceptor beads into close proximity.
as §3

[4] = IC50 category, read-out: CRAF binding affinity
[5] = IC50 category, read-out: BRAF^V600E binding affinity
[6] = read-out: A375 pERK inhibition category
[7] = read-out: A375 pERK inhibition IC50
[8] = read-out: CRAF binding affinity IC50
[9] = read-out: BRAF^V600E binding affinity IC50
[10] = 1 hr treatment, read-out: WiDr pERK inhibition category 1 hr
[11] = 24 hrs treatment, read-out: WiDr pERK inhibition category 24 hrs

Structure (SMILES) | IC50 (C-RAF Y340D/Y341D kinase; [4]) [nM] | IC50 (B-RAF^V600E kinase; [5]) [nM] | IC50 [1, 6] [nM] | paradoxical activation of MAPK pathway (ERK phosphorylation) [2] | further results
O=C1CCc2c(Oc3ccc4c(c3)CC(c3nc5ccccc5[nH]3)CO4)ccnc2N1 (stereo not drawn) [Example 1, 5-[3-(1H-benzimidazol-2-yl)chroman-6-yl]oxy-3,4-dihydro-1H-1,8-naphthyridin-2-one] | < 4 | < 4 | – | – | –
O=C1CCc2c(Oc3ccc4c(c3)CC(c3nc5cccc(Cl)c5[nH]3)CO4)ccnc2N1 (stereo not drawn) [Example 2, 5-[3-(7-chloro-1H-benzimidazol-2-yl)chroman-6-yl]oxy-3,4-dihydro-1H-1,8-naphthyridin-2-one] | 4 to 100 | 4 to 100 | 70 to 300 | – | –
O=C1CCc2c(Oc3ccc4c(c3)CC(c3nc(-c5ccccc5)c[nH]3)CO4)ccnc2N1 (stereo not drawn) [Example 3, 5-[3-(4-phenyl-1H-imidazol-2-yl)chroman-6-yl]oxy-3,4-dihydro-1H-1,8-naphthyridin-2-one] | – | – | – | reduced paradoxical activation of MAPK pathway in comparison to Dabrafenib; also recorded: reduced paradoxical activity | –
O=C1CCc2c(Oc3ccc4c(c3)CC(c3nc(-c5ccncc5)c[nH]3)CO4)ccnc2N1 (stereo not drawn) [Example 4, 5-[3-[4-(4-pyridyl)-1H-imidazol-2-yl]chroman-6-yl]oxy-3,4-dihydro-1H-1,8-naphthyridin-2-one] | < 4 | < 4 | > 300 | reduced paradoxical activity | –
CC(C)(C)c1c[nH]c(C2COc3ccc(Oc4ccnc5c4CCC(=O)N5)cc3C2)n1 (stereo not drawn) [Example 5, 5-[3-(4-tert-butyl-1H-imidazol-2-yl)chroman-6-yl]oxy-3,4-dihydro-1H-1,8-naphthyridin-2-one] | < 4 | 4 to 100 | – | – | –
O=C1CCc2c(Oc3ccc4c(c3)CC(c3nc(-c5ccsc5)c[nH]3)CO4)ccnc2N1 (stereo not drawn) [Example 6, 5-[3-[4-(3-thienyl)-1H-imidazol-2-yl]chroman-6-yl]oxy-3,4-dihydro-1H-1,8-naphthyridin-2-one] | < 4 | < 4 | < 70 | reduced paradoxical activity | IC50 [1, 7]: 23.4 nM; IC50 (C-RAF Y340D/Y341D kinase; [8]): 0.4 nM; IC50 (B-RAF^V600E kinase; [9]): 1 nM
O=C1CCc2c(Oc3ccc4c(c3)CC(c3nc(-c5cccs5)c[nH]3)CO4)ccnc2N1 (stereo not drawn) [Example 7, 5-[3-[4-(2-thienyl)-1H-imidazol-2-yl]chroman-6-yl]oxy-3,4-dihydro-1H-1,8-naphthyridin-2-one] | < 4 | < 4 | < 70 | reduced paradoxical activity | IC50 (C-RAF Y340D/Y341D kinase; [8]): 0.5 nM; IC50 (B-RAF^V600E kinase; [9]): 1.1 nM
O=C1CCc2c(Oc3ccc4c(c3)CC(c3ncc(-c5ccccc5Cl)[nH]3)CO4)ccnc2N1 (stereo not drawn) [Example 8, 5-[3-[5-(2-chlorophenyl)-1H-imidazol-2-yl]chroman-6-yl]oxy-3,4-dihydro-1H-1,8-naphthyridin-2-one] | < 4 | < 4 | – | – | –
O=C1CCc2c(Oc3ccc4c(c3)CC(c3ncc(-c5cccc(Cl)c5)[nH]3)CO4)ccnc2N1 (stereo not drawn) [Example 9, 5-[3-[5-(3-chlorophenyl)-1H-imidazol-2-yl]chroman-6-yl]oxy-3,4-dihydro-1H-1,8-naphthyridin-2-one] | < 4 | < 4 | – | – | –
O=C1CCc2c(Oc3ccc4c(c3)CC(c3nc(-c5coc6ccccc56)c[nH]3)CO4)ccnc2N1 (stereo not drawn) [Example 10, 5-[3-[4-(benzofuran-3-yl)-1H-imidazol-2-yl]chroman-6-yl]oxy-3,4-dihydro-1H-1,8-naphthyridin-2-one] | < 4 | < 4 | – | – | –
O=C1CCc2c(Oc3ccc4c(c3)CC(c3ncc(-c5cccnc5)[nH]3)CO4)ccnc2N1 (stereo not drawn) [Example 11, 5-[3-[5-(3-pyridyl)-1H-imidazol-2-yl]chroman-6-yl]oxy-3,4-dihydro-1H-1,8-naphthyridin-2-one] | < 4 | < 4 | – | – | –
CS(=O)(=O)c1ccc(-c2cnc(C3COc4ccc(Oc5ccnc6c5CCC(=O)N6)cc4C3)[nH]2)cc1 (stereo not drawn) [Example 12, 5-[3-[5-(4-methylsulfonylphenyl)-1H-imidazol-2-yl]chroman-6-yl]oxy-3,4-dihydro-1H-1,8-naphthyridin-2-one] | 4 to 100 | > 100 | – | – | –
O=C1CCc2c(Oc3ccc4c(c3)CC(c3ncc(-c5ccc(F)cc5)[nH]3)CO4)ccnc2N1 (stereo not drawn) [Example 13, 5-[3-[5-(4-fluorophenyl)-1H-imidazol-2-yl]chroman-6-yl]oxy-3,4-dihydro-1H-1,8-naphthyridin-2-one] | < 4 | < 4 | – | – | –
O=C1CCc2c(Oc3ccc4c(c3)CC(c3ncc(-c5ccc6c(c5)OCO6)[nH]3)CO4)ccnc2N1 (stereo not drawn) [Example 14, 5-[3-[5-(1,3-benzodioxol-5-yl)-1H-imidazol-2-yl]chroman-6-yl]oxy-3,4-dihydro-1H-1,8-naphthyridin-2-one] | < 4 | < 4 | – | – | –
O=C1CCc2c(Oc3ccc4c(c3)CC(c3ncc(-c5ccc6c(c5)OCCO6)[nH]3)CO4)ccnc2N1 (stereo not drawn) [Example 15, 5-[3-[5-(2,3-dihydro-1,4-benzodioxin-6-yl)-1H-imidazol-2-yl]chroman-6-yl]oxy-3,4-dihydro-1H-1,8-naphthyridin-2-one] | < 4 | 4 to 100 | – | – | –
O=C1CCc2c(Oc3ccc4c(c3)C=C(c3nc(-c5ccccc5)c[nH]3)CO4)ccnc2N1 [Example 16, 5-[[3-(4-phenyl-1H-imidazol-2-yl)-2H-chromen-6-yl]oxy]-3,4-dihydro-1H-1,8-naphthyridin-2-one] | < 4 | 4 to 100 | > 300 | – | –
O=C1CCc2c(Oc3ccc4c(c3)CC(c3nc(-c5ccccc5)no3)CO4)ccnc2N1 (stereo not drawn) [Example 17, 5-[3-(3-phenyl-1,2,4-oxadiazol-5-yl)chroman-6-yl]oxy-3,4-dihydro-1H-1,8-naphthyridin-2-one] | 4 to 100 | 4 to 100 | – | – | –
O=C1CCc2c(Oc3ccc4c(c3)CC(c3cc(-c5ccccc5)[nH]n3)CO4)ccnc2N1 (stereo not drawn) [Example 18, 5-[3-(5-phenyl-1H-pyrazol-3-yl)chroman-6-yl]oxy-3,4-dihydro-1H-1,8-naphthyridin-2-one] | < 4 | < 4 | > 300 | reduced paradoxical activity | –
O=C1CCc2c(Oc3ccc4c(c3)O[C@@H](c3nc(-c5ccccc5)c[nH]3)CO4)ccnc2N1 [Example 19, 5-[[(3S)-3-(4-phenyl-1H-imidazol-2-yl)-2,3-dihydro-1,4-benzodioxin-6-yl]oxy]-3,4-dihydro-1H-1,8-naphthyridin-2-one] | < 4 | < 4 | 70 to 300 | reduced paradoxical activity | IC50 [1, 7]: 155 nM; IC50 [3, 10]: 70 to 300 nM; IC50 [3, 11]: > 300 nM
O=C1CCc2c(Oc3ccc4c(c3)O[C@H](c3nc(-c5ccccc5)c[nH]3)CO4)ccnc2N1 [Example 20, 5-[[(3R)-3-(4-phenyl-1H-imidazol-2-yl)-2,3-dihydro-1,4-benzodioxin-6-yl]oxy]-3,4-dihydro-1H-1,8-naphthyridin-2-one] | < 4 | < 4 | 70 to 300 | reduced paradoxical activity | IC50 [1, 7]: 282 nM; IC50 [3, 10]: 70 to 300 nM; IC50 [3, 11]: > 300 nM
Cc1cc(Oc2ccc3c(c2)CC(c2ncc(-c4ccccc4)[nH]2)CO3)ccn1 (stereo not drawn) [Example 21, 2-Methyl-4-[3-(5-phenyl-1H-imidazol-2-yl)chroman-6-yl]oxy-pyridine] | 4 to 100 | 4 to 100 | – | – | –
